Data taken from PMC10649961, “Novel Mitochondria-Targeted Amphiphilic Aminophosphonium Salts and Lipids Nanoparticles: Synthesis, Antitumor Activity and Toxicity” (Nanomaterials, 2023).
Where two headings read alike, the source gives them in different places.

Assays:
[1] = system: Staphylococcus aureus ATCC 6538 P FDA 209P; assay: Antimicrobial activity, serial microdilutions, Sa; type: cell-based; design: key to Minimum bactericidal and fungicidal concentrations (MBC, MFC): – means non-active; details: for MIC: read-out: Minimum Inhibitory Concentration (MIC)
How it was run: (§1)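 Compounds were serially diluted in broth: Mueller-Hinton for the bacterial strains, Sabouraud for the yeast. Each determination was done in triplicate.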

[2] = system: Bacillus cereus ATCC 10702 NCTC 8035; assay: Antimicrobial activity, serial microdilutions, Bc; type: cell-based; design: key to Minimum bactericidal and fungicidal concentrations (MBC, MFC): – means non-active; details: for MIC: read-out: Minimum Inhibitory Concentration (MIC)
How it was run: (§2)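 Yeast was cultured in Sabouraud broth and bacteria in Mueller-Hinton broth while compounds were tested by serial microdilution. The methicillin-resistant isolate (MRSA-1) originated from chronic tonsillitis; replicates n=3.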

[3] = system: Enterococcus faecalis ATCC 29212; assay: Antimicrobial activity, serial microdilutions, Ef; type: cell-based; design: key to Minimum Inhibitory Concentration (MIC) / Minimum bactericidal and fungicidal concentrations (MBC, MFC): – means non-active
How it was run: as §1

MRSA-1 = assay: Antimicrobial activity, serial microdilutions, MRSA-1; type: cell-based, S. aureus; design: key to Minimum Inhibitory Concentration (MIC) / Minimum bactericidal and fungicidal concentrations (MBC, MFC): – means non-active; details: for MIC: read-out: Minimum Inhibitory Concentration (MIC)
How it was run: as §2

MRSA-2 = assay: Antimicrobial activity, serial microdilutions, MRSA-2; type: cell-based, S. aureus; details: Staphylococcus aureus; for MIC: read-out: Minimum Inhibitory Concentration (MIC); for MBC: read-out: Minimum bactericidal and fungicidal concentrations (MBC, MFC)
How it was run: as §1

[4] = system: Escherichia coli ATCC 25922; assay: Antimicrobial activity, serial microdilutions, Ec; type: cell-based; design: key to Minimum Inhibitory Concentration (MIC) / Minimum bactericidal and fungicidal concentrations (MBC, MFC): – means non-active
How it was run: as §2

[5] = system: Pseudomonas aeruginosa ATCC 9027; assay: Antimicrobial activity, serial microdilutions, Pa; type: cell-based; design: key to Minimum Inhibitory Concentration (MIC) / Minimum bactericidal and fungicidal concentrations (MBC, MFC): – means non-active
How it was run: as §2

[6] = system: Candida albicans ATCC 10231; assay: Antimicrobial activity, serial microdilutions, Ca; type: cell-based; design: key to Minimum Inhibitory Concentration (MIC) / Minimum bactericidal and fungicidal concentrations (MBC, MFC): – means non-active
How it was run: as §2

M-HeLa [7] = details: calculated relative to the cell line WI38 (a)
MCF-7 [8] = details: calculated relative to the cell line WI38 (a)
HuTu 80 [9] = details: calculated relative to the cell line WI38 (a)
PANC-1 [10] = details: calculated relative to the cell line WI38 (a)
A549 [11] = system: A549
PC3 [12] = details: calculated relative to the cell line WI38 (a)
T98G [13] = system: T98G
Hep G2 [14] = system: Hep G2
SK-OV-3 [15] = system: SK-OV-3
DU-145 [16] = system: DU-145
M-HeLa [17] = assay: cells; details: Homo sapiens, 48 h, read-out: Cytotoxic Effects (IC50)
MCF-7 [18] = assay: cells; details: Homo sapiens, MCF7, 48 h, read-out: Cytotoxic Effects (IC50)
HuTu 80 [19] = assay: cells; details: Homo sapiens, HuTu80, 48 h, read-out: Cytotoxic Effects (IC50)
PANC-1 [20] = assay: cells; details: Homo sapiens, PANC-1, 48 h, read-out: Cytotoxic Effects (IC50)
A549 [21] = assay: cells; details: Homo sapiens, A549, 48 h, read-out: Cytotoxic Effects (IC50)
PC3 [22] = assay: cells; details: Homo sapiens, PC-3, 48 h, read-out: Cytotoxic Effects (IC50), PC3, MTT assay, 48 h
T98G [23] = assay: cells; details: Homo sapiens, 48 h, read-out: Cytotoxic Effects (IC50)
Hep G2 [24] = assay: cells; details: Homo sapiens, HepG2, 48 h, read-out: Cytotoxic Effects (IC50)
SK-OV-3 [25] = assay: cells; details: Homo sapiens, SK-OV-3, 48 h, read-out: Cytotoxic Effects (IC50)
DU-145 [26] = assay: cells; details: Homo sapiens, DU-145, 48 h, read-out: Cytotoxic Effects (IC50), DU-145, MTT assay, 48 h
[27] = Staphylococcus aureus, read-out: Minimum bactericidal and fungicidal concentrations (MBC, MFC)
[28] = calculated relative to the cell line WI38 (a)
[29] = reference normal cell line not marked at the place (ns cells)

CCCCCCCCCCCCCC[P+](c1ccccc1)(c1ccccc1)N(CC)CC [6e, (Diethylamino)diphenyl(tetradecyl)phosphonium bromide]
MIC ([1]; Staphylococcus aureus): 0.5 ± 0.04 µM
MBC [1, 27]: 0.5 ± 0.04 µM
MIC ([2]; Bacillus cereus, Bc): 0.9 ± 0.08 µM
MBC ([2]; Bacillus cereus, read-out: Minimum bactericidal and fungicidal concentrations (MBC, MFC)): 31.3 ± 2.5 µM
MIC ([3]; Enterococcus faecalis, ATCC29212, read-out: Minimum Inhibitory Concentration (MIC)): 0.5 ± 0.03 µM
MBC ([3]; Enterococcus faecalis, ATCC29212, read-out: Minimum bactericidal and fungicidal concentrations (MBC, MFC)): 0.9 ± 0.1 µM
MIC (MRSA-1; Staphylococcus aureus): 0.5 ± 0.04 µM
MBC (MRSA-1; [27]): 1.9 ± 0.1 µM
MIC (MRSA-2): 0.5 ± 0.03 µM
MBC (MRSA-2): 0.5 ± 0.04 µM
MIC ([4]; Escherichia coli, ATCC25922, read-out: Minimum Inhibitory Concentration (MIC)): 31.3 ± 2.4 µM
MBC ([4]; Escherichia coli, ATCC25922, read-out: Minimum bactericidal and fungicidal concentrations (MBC, MFC)): 125 ± 11 µM
MIC ([5]; Pseudomonas aeruginosa, ATCC9027, read-out: Minimum Inhibitory Concentration (MIC)): 3.9 ± 0.3 µM
MBC ([5]; Pseudomonas aeruginosa, ATCC9027, read-out: Minimum bactericidal and fungicidal concentrations (MBC, MFC)): 3.9 ± 0.4 µM
MIC ([6]; Candida albicans, ATCC10231, read-out: Minimum Inhibitory Concentration (MIC)): 1.9 ± 0.1 µM
MBC ([6]; Candida albicans, ATCC10231, read-out: Minimum bactericidal and fungicidal concentrations (MBC, MFC)): 15.6 ± 1.2 µM
selectivity index (SI) (M-HeLa [7]): 7.0
selectivity index (SI) (MCF-7 [8]): 2.3
selectivity index (SI) (HuTu 80 [9]): 40
selectivity index (SI) (PANC-1 [10]): 9.3
selectivity index (SI) (A549 [11]; [28]): 1.3
selectivity index (SI) (PC3 [12]): 1.9
selectivity index (SI) (T98G [13]; [28]): 2.5
selectivity index (SI) (Hep G2 [14]; [28]): 2.0
selectivity index (SI) (SK-OV-3 [15]; [28]): 1.8
selectivity index (SI) (DU-145 [16]; [28]): 7.0
IC50 (M-HeLa [17]): 400 ± 30 nM
IC50 (MCF-7 [18]): 1200 ± 100 nM
IC50 (HuTu 80 [19]): 70 ± 5 nM
IC50 (PANC-1 [20]): 300 ± 20 nM
IC50 (A549 [21]): 2100 ± 100 nM
IC50 (PC3 [22]): 1500 ± 100 nM
IC50 (T98G [23]): 1100 ± 90 nM
IC50 (Hep G2 [24]): 1400 ± 100 nM
IC50 (SK-OV-3 [25]): 1600 ± 100 nM
IC50 (DU-145 [26]): 400 ± 20 nM

CCCCCCCC[N+](CC)(CC)CC [compound 7, Triethyloctylammonium iodide, reference compound]
Minimum bactericidal and fungicidal concentrations (MBC, MFC) [1]: –
MIC ([1]; Staphylococcus aureus): 250 ± 20 µM
MIC ([2]; Bacillus cereus, Bc): 500 ± 47 µM
Minimum bactericidal and fungicidal concentrations (MBC, MFC) ([2]; Bc): –
Minimum Inhibitory Concentration (MIC) [3]: –
Minimum bactericidal and fungicidal concentrations (MBC, MFC) [3]: –
Minimum bactericidal and fungicidal concentrations (MBC, MFC) (MRSA-1): –
MIC (MRSA-1; Staphylococcus aureus): 250 ± 19 µM
MIC (MRSA-2): 250 ± 20 µM
MBC (MRSA-2): 500 ± 47 µM
Minimum Inhibitory Concentration (MIC) [4]: –
Minimum bactericidal and fungicidal concentrations (MBC, MFC) [4]: –
Minimum Inhibitory Concentration (MIC) [5]: –
Minimum bactericidal and fungicidal concentrations (MBC, MFC) [5]: –
Minimum Inhibitory Concentration (MIC) ([6]; Ca): –
Minimum bactericidal and fungicidal concentrations (MBC, MFC) ([6]; Ca): –
selectivity index (SI) (M-HeLa [7]): 3.0
selectivity index (SI) (MCF-7 [8]): 1.7
selectivity index (SI) (HuTu 80 [9]): 26
selectivity index (SI) (PANC-1 [10]): 1.1
selectivity index (SI) (A549 [11]; [29]): ns (ns—no selectivity)
selectivity index (SI) (PC3 [12]): 1.5
selectivity index (SI) (T98G [13]; [29]): ns (ns—no selectivity)
selectivity index (SI) (Hep G2 [14]; [29]): ns (ns—no selectivity)
selectivity index (SI) (SK-OV-3 [15]; [29]): ns (ns—no selectivity)
selectivity index (SI) (DU-145 [16]; [29]): ns (ns—no selectivity)
IC50 (M-HeLa [17]): 16100 ± 1300 nM
IC50 (MCF-7 [18]): 29100 ± 2000 nM
IC50 (HuTu 80 [19]): 1900 ± 200 nM
IC50 (PANC-1 [20]): 44600 ± 3100 nM
IC50 (A549 [21]): > 100000 nM
IC50 (PC3 [22]): 32700 ± 2300 nM
IC50 (T98G [23]): > 100000 nM
IC50 (Hep G2 [24]): > 100000 nM
IC50 (SK-OV-3 [25]): 69000 ± 4800 nM
IC50 (DU-145 [26]): 58000 ± 4100 nM
